Data set [1] has as its system Staphylococcus aureus strain ATCC6538P (L100). Briefly: Macromolecular synthesis (incorporation of labelled precursors of DNA, RNA, protein and cell wall). It is filed as cell-based. The conditions noted are these: 20 min at 37°C. How it is done:
Staphylococcus aureus strain ATCC6538P (L100) was grown overnight at 37 °C in a rotary bath in Iso-Sensitest Broth (Oxoid Ltd., Basingstoke, Hampshire, England). The culture was diluted up to an OD540 = 0.03 in a 1:1 (v/v) mixture of Iso-Sensitest broth : Davis Mingioli Broth (Difco Labs, Detroit, USA) added with 1g/l of KH2PO4, and was incubated at 37°C. To determine the antibiotic dose/response effects on RNA, DNA, protein and cell wall biosyntheses, the culture was divided in four parts when the optical density reached 0.4. Individual precursors of DNA ([…] ^3H-thymidine + 0.1g/l unlabelled adenosine), RNA (5 mCi/l ^3H-uracil), protein (10 mCi/l ^3H-leucine), and cell wall (1 mCi/l ^3H-N-acetylglucosamine + 3.5 mg/l unlabelled N-acetylglucosamine) biosyntheses were then added, resptectively, to each one of the four aliquots and, immediately after the addition, 100 µl of the resulting culture was dispensed in wells of microtiter plate (96 wells format), containing 10 µl of solutions of antibiotic 97518. After 20 min of incubation at 37°C, 0.1 ml ice-cold 20% (w/v) trichloroacetic acid was added to stop the incorporation. After 30 minutes at 4°, the samples were filtered on Filtermat A (Wallac) using an 96 well Wallac Cell Harvester. The Radioactivity not incorporated was washed away sequentially with water and ethanol. The radioactivity of the biopolymers was counted on the filters, using a Beta Plate System (Wallac).

Data set [2] relates to 1652 Enterococcus faecium cl.isol. Van A. Put plainly: Microbroth dilution MIC (NCCLS M7-A5). To be noted: CAMHB, 10^4 CFU/ml, 35°C, 18-24 hours. Also on record: unit not given here. In kind it is cell-based. The procedure: (§1) Antimicrobial activity of antibiotic 97518 was determined by using microbroth dilution method with standard U-bottom 96-well plates according to The National Committee for Clinical Laboratory Standards (Methods for Dilution Antimicrobial Susceptibility Tests for Bacteria that Grow Aerobically - Fifth Edition; Approved Standard. NCCLS document M7-A5 Vol.20 No. 2). The strains used were clinical isolates or strains from American Type Culture Collection (ATCC). Powder of antibiotic 97518 was dissolved in DMSO; this solution was further diluted with distilled water. The media used were cation-adjusted Mueller Hinton broth (CAMHB) for Staphylococcus aureus, Moraxella catarrhalis, Enterococci; Todd Hewitt broth (THB) for Streptococcus pyogenes, Streptococcus pneumoniae. Inocula were 10^4 CFU/ml. All strains were incubated at 35°C in air. Incubation time was 18-24 hours. […]

Data set [3] deals with 997 Neisseria gonorrhoeae clin.is. Briefly: Microbroth dilution MIC (NCCLS M7-A5). In kind it is cell-based. To be noted: 10^4 CFU/ml, 35°C, 18-24 hours. The procedure: as §1
In general terms: Dilution methods test growth across graded concentrations, often in twofold steps.

The subject of data set [4] is Streptococcus pyogenes C 203. Put plainly: Mouse septicemia protection test (ip infection, survival to day 7). It is filed as in vivo, Female ICR mice. To be noted: mice infected ip with Streptococcus pyogenes C 203, Spearman-Kärber method. How it is done:
Female ICR mice (Harlan, Italy) weighing 14-16 g were infected intraperitoneally (ip) with 6.5 x 10^2 cells of Streptococcus pyogenes C 203 in 0.5 mL of saline supplemented with 1% peptone. Antibiotic 97518 was administered intravenously (iv) or subcutaneously (sc) within 10-15 min after infection. The 50% effective doses (ED50) were calculated by the Spearman-Kärber method (D.J. Finney. The Spearman-Kärber method. In: Statistical Methods in Biological Assay. (1952) pp. 524-530, Charles Griffin &Co., Ltd., London) from the percentage of animals surviving to day 7 at each dose.

The conditions of data set [5]: in vivo.

In brackets after ≈: the same amount, converted by molar mass.

nisin [reference compound]: the “the four macromolecular syntheses (DNA, RNA, protein, cell wall)” value in data set [1] (control experiments) is “inhibited all the four macromolecular syntheses at the same concentration”.

With `C=C1NC(=O)[C@H](C(C)C)NC(=O)[C@H](NC(=O)/C(=C/C)NC(=O)[C@@H](N)[C@@H](C)CC)CSC[C@@H](C(=O)N[C@H]2C(=O)N3CCC[C@H]3C(=O)NCC(=O)N[C@H](C(=O)N[C@H](C(=O)N[C@@H]3CSC[C@@H]4NC(=O)CNC(=O)[C@@H](CSC[C@@H]5NC(=O)[C@H](Cc6c[nH]cn6)NC(=O)[C@@H](CSC[C@@H](C(=O)O)NC5=O)NC4=O)NC(=O)CNC(=O)CNC(=O)CNC(=O)[C@H](CCC(=O)O)NC3=O)[C@@H](C)O)CS[C@H]2C)NC(=O)[C@H](Cc2c[nH]c3ccccc23)NC1=O` [Antibiotic 97518], the MIC was 64 in data set [2] and 64 mg/mL (≈ 29.2 mM) in data set [3]. Further, the ED50 in data set [4] (administered intravenously (iv) within 10-15 min after infection) and in data set [4] (administered subcutaneously (sc) within 10-15 min after infection) was 3.75 mg/kg in each case. Also, the “other macromolecular syntheses (DNA, RNA, protein)” value in data set [1] (at 2.5 µg/ml (same concentrations)) is “only partially inhibited”. The “cell wall synthesis (3H-N-acetylglucosamine incorporation)” value in data set [1] (at 2.5 µg/ml) is listed as “blocked cell wall synthesis completely”. The “not toxic up to (dose)” value in data set [5] is given as “up to 100 mg/Kg”.

What is called ED50 is the dose at which the effect has come halfway, by size or by number of responders.

(Values after patent EP1481986A1, “Antibiotic 97518, pharmaceutically acceptable salts and compositions, and use thereof” (priority 2003, dated 2004).)
